Values quoted from earlier work as cited in publication PMC9686516, “Pharmacokinetic Characteristics of Nebulized Colistimethate Sodium Using Two Different Types of Nebulizers in Critically Ill Patients with Ventilator-Associated Respiratory Infections” (Antibiotics, 2022).
Where a SMILES comes first, the peptide text is derived from it. Bridges are numbered along the chain shown (N, C = ends). [ ]: non-standard residue; d: D form. The star is where a group is joined. X1 = CC[C@H](C)CCCCC(=O)*; Dab = NCC[C@H](N)C(=O)O

Experiments:
[1] = cited from earlier work
Procedure: The median (IQR) values of colistin concentration in plasma (Ccolistin, plasma) using VMN nebulization were 0.6 (0.4–0.7) mg/L, 2.3 (1.4–2.7) mg/L, 1.7 (1.1–2.0) mg/L, 0.8 (0.7–0.9) mg/L, 0.4 (0.3–0.6) mg/L, and 0.2 (0.2–0.4) mg/L, at 0.5, 1, 2, 4, 6 and 8 h post-nebulization. The corresponding values with JN were 0.1 (0.1–0.1) mg/L, 0.1 (0.1–0.2) mg/L, 0.3 (0.3–0.4) mg/L, 0.2 (0.2–0.2) mg/L, 0.1 (0.1–0.1) mg/L, and 0.1 (0.1–0.1) mg/L (Figure 3). Median Ccolistin, plasma was greater than 2 mg/L at 1 h post-nebulization, a value which is the average concentration, in steady-state conditions, th ... || Contrarily, our results were only marginally compatible with the results of Boisson et al. and Gkoufa et al.. In the former study, the range of colistin concentration in the ELF following a 2 mIU inhalation spanned from 9.53 to 1137 mg/L [14], while it was between 0.8 mg/L and 57.9 mg/L in the present study. In the latter study, the exact values were not reported, however in the figured data it was shown that after an inhalation of 3 to 5 mIU of CMS, formed colistin concentrations were in the range of 10^2 to 10^3 mg/L [16]. Again, it is not known whether these differences we ...

[2] = 1 mIU of CMS via VMN; similar ICU setting; median (IQR); cited from earlier work
Procedure: In this single-center study, we compared the pharmacokinetic properties of formed colistin in the ELF and the plasma compartment when inhaled CMS, at a typical dose, was administered either via a VMN or a generic JN. […] Indeed, the median total (as opposed to unbound) AUC0–24 in the ELF for the two modalities were 86.2 and 91.5 mg/L*h for VMN and JN, respectively. […] However, the ELF exposure was similar, despite the higher dose, probably due to a higher clearance from the lung compartment in our study, as evidenced by the ... || Contrarily, our results were only marginally compatible with the results of Boisson et al. and Gkoufa et al.. In the former study, the range of colistin concentration in the ELF following a 2 mIU inhalation spanned from 9.53 to 1137 mg/L [14], while it was between 0.8 mg/L and 57.9 mg/L in the present study. In the latter study, the exact values were not reported, however in the figured data it was shown that after an inhalation of 3 to 5 mIU of CMS, formed colistin concentrations were in the range of 10^2 to 10^3 mg/L [16]. Again, it is not known whether these differences we ...

Klebsiella pneumoniae = conditions: in vitro experiments, typical plasma maximum concentrations; cited from earlier work

SMILES: CC[C@H](C)CCCCC(=O)N[C@@H](CCN)C(=O)N[C@H](C(=O)N[C@@H](CCN)C(=O)N[C@H]1CCNC(=O)[C@H]([C@@H](C)O)NC(=O)[C@H](CCN)NC(=O)[C@H](CCN)NC(=O)[C@H](CC(C)C)NC(=O)[C@@H](CC(C)C)NC(=O)[C@H](CCN)NC1=O)[C@@H](C)O [colistin] (X1-[Dab]T[Dab][Dab][Dab][dL]L[Dab][Dab]T; lactam 4-C)
- average plasma concentration, in steady-state conditions, that predicts acute renal failure [1]: 2 mg/L
- formed colistin plasma values linked to the occurrence of nephrotoxicity [1]: 2 to 2.5 mg/L
- Cmax in ELF [2]: 6.7 (4.8–10.1) mg/L
- fAUC/MIC linked to 2-log killing (Klebsiella pneumoniae): 25
